In patent publication US11129810B2, “Dosage regimen for the treatment of acute exacerbations of chronic obstructive pulmonary disease” (MEREO BIOPHARMA 1 LIMITED, priority 2016, dated 2021):

Experiments:
TNF-α = TNF-α levels after single oral doses versus placebo (ex vivo LPS-challenged blood samples); type: in vivo, human
Description: (§1) A number of PK studies have been performed looking at both dosing intervals (Days 1, 3 and 5 (FIGS. 1-4, top panels) versus Days 1, 4 and 7 (FIGS. 1-4 bottom panels)), as well as dose levels (approximately 75/40/40 mg (FIG. 1); approximately 75/20/20 (FIG. 2); approximately 40/40/40 mg (FIG. 3); approximately 40/20/20 mg (FIG. 4), etc.). Based on exposures of the various regimens, there is limited benefit in dosing beyond Day 5 for a typical exacerbation.
Part 1 of study CBCT197A2101 was a randomized, double-blind, placebo-controlled, ascending single-dose study to evaluate safety, tolerability, PK and PD of oral 3-[5-amino-4-(3-cyanobenzoyl)-pyrazol-1-yl]-N-cyclopropyl-4-methylbenzamide in healthy subjects. Part 2 was a 14-day, randomized, double-blind, placebo-controlled, ascending multiple dose study evaluating the PK and PD of oral 3-[5-amino-4-(3-cyanobenzoyl)-pyrazol-1-yl]-N-cyclopropyl-4-methylbenzamide. PD effect of 3-[5-amino-4-(3-cyanobenzoyl)-pyrazol-1-yl]-N-cyclopropyl-4-methylbenzamide in Parts 1 and 2 was assessed by measuring TNFa levels in ex vivo LPS-challenged blood samples. […] Part 3 of the study determined the effect of a single oral administration of 3-[5-amino-4-(3-cyanobenzoyl)-pyrazol-1-yl]-N-cyclopropyl-4-methylbenzamide on serum TNFa levels after in vivo intravenous LPS challenge.

[1] = Human plasma PK of the Day 1, 3 and 5 dosing regimen; type: in vivo
Text: This study investigated the efficacy, safety and tolerability of two different dosing regimens of 3-[5-amino-4-(3-cyanobenzoyl)-pyrazol-1-yl]-N-cyclopropyl-4-methylbenzamide added to SoC (systemic corticosteroids and/or antibiotics) versus placebo added to SoC in subjects with severe acute exacerbations of COPD. The proposed doses take into account trough levels based on PK modelling to ensure that the drug rapidly achieves and remains at effective concentrations between doses.
as §1
Dosing at Day 1, 3 and 5, maintains drug levels above 220 ng/mL out to approximately 140 to 150 hours. This achieves a plasma concentration of 5.7 μM.
The concentration based on free fraction is at or above 740 nM for the duration of the dosing interval. Cmax is approximately 2 μM based on the first dose. […] Assuming a PK variability of 50%, drug levels are 3 to 5 times above the K and so would produce high levels of inhibition, potentially in the range of 90 to 99%.

[2] = Plasma protein binding (free fraction) in human plasma samples; type: in vitro ADME
[3] = Highest safe dose based on toxicology margins
Description: However, in order to initiate suppression of the inflammatory response the Day 1 dose in both regimes is higher than the doses on Days 3 and 5. The ‘high’ dosing regimen (regimen 1) is initiated at 75 mg which is the highest dose which can be safely administered based on toxicology margins whereas the ‘low’ dose regimen is initiated at a 40 mg dose which approximates to the mid-point in the TNF-α response curve.

[4] = single oral dose; WO 2013/139809; cited from earlier work

- plasma concentration ([1]; dosing at Day 1, 3 and 5): 5700 nM
- drug levels maintained ([1]; dosing at Day 1, 3 and 5, out to approximately 140 to 150 hours): above 220 ng/mL
- concentration based on free fraction ([1]; for the duration of the dosing interval): ≥ 740 nM
- Cmax ([1]; human, plasma, oral, based on the first dose): ~2000 nM
- fraction unbound [2]: 0.13 to 0.25
SMILES: Cc1ccc(C(=O)NC2CC2)cc1-n1ncc(C(=O)c2cccc(C#N)c2)c1N [3-[5-amino-4-(3-cyanobenzoyl)-pyrazol-1-yl]-N-cyclopropyl-4-methylbenzamide]
- reduction in TNF-α levels (TNF-α; doses ranging from 0.1 to 75 mg): dose-dependent reduction
- dose approximating the mid-point in the TNF-α response curve (TNF-α; in vivo): ~40 mg
- enzyme inhibition ([1]; occurs for 6 days, from drug levels versus Ki and IC50): > 99%
- highest dose which can be safely administered based on toxicology margins [3]: 75 mg
- effect on recovery of AECOPD to the stable disease state [4]: accelerates the recovery to the stable disease state
